Test results taken from US8961930B2, “Isatin derivatives for use as in vivo imaging agents” (Imperial Innovations Limited, priority 2008, dated 2015).

Columns and labels:
[1] = system: 38C13 murine lymphoma xenograft; assay: Biodistribution of [^18F]11 in 38C13 xenograft-bearing mice after PET scan; type: in vivo, C3H/hej mice; design: Biodistribution, Lung: unit not given here
Description: The in vivo experimental model of tumour apoptosis was established by subcutaneous injection of 38C13 murine lymphoma cells (5000 cells) on the back of 6-8 weeks old male C3H/hej mice (Harlan, Bicester, Oxfordshire, UK). When xenografts reached ˜100 mm3, the mice were treated with cyclophosphamide (CPA, 100 mg/kg) or vehicle for 24 h and then scanned on a dedicated small animal PET scanner (Siemens Inveon PET module). Anesthetized animals were placed within a thermostatically controlled bed and positioned prone within the scanner. A bolus injection of [^18F]11 (˜100 μCi) was given intravenously (i.v.) via the tail vein cannula and scanning commenced.
Dynamic emission scans were acquired in list-mode format over 60 minutes. The acquired data were then sorted into 0.5-mm sinogram bins and 19 time frames for image reconstruction, which was done by filtered back projection. The image data-sets obtained were visualized using the Siemens Inveon Research Workplace software. Cumulative images of the dynamic data were used for visualization of radiotracer uptake and to define the regions of interest (ROI). The count densities were averaged for each ROI at each of the 19 time points to obtain a time versus radioactivity curve (TAC) for the ROIs (see FIG. 15).
Tumour TAC was normalized to that of whole body at each of the time points to obtain the normalized uptake value (NUV).
After the scan, the different tissues were removed, weighted and placed in tubes for immediate Fluorine-18 radioactivity counting to assess the [^18F]11 biodistribution (See Table 4, below).

[2] = system: RIF-1 cells; assay: In vitro [^18F]11 uptake in RIF-1 cells; type: cell-based, murine
Text: The human ovarian carcinoma cell lines PEO1/4 were established and characterised as described in Wolf C. R. et al.^22 and Langdon S. P. et al^23. Briefly, PEO1/4 cells were derived from the malignant ascites of a patient with a recurrent mucinous ovarian adenocarcinoma, before (PEO1) and after (PEO4) the onset of a clinical resistance to cisplatin chemotherapy in this patient. The radiation-induced murine fibrosarcoma (RIF-1) tumour cell line was originally characterised by Twentyman P. R. et al.^20. The LNM35 tumour cells are a highly lymphogenous metastatic subline of the human large pulmonary carcinoma NCI-H460 cell line, as described in Kozaki K. et al.^24. […]
Cells were plated in triplicate in 12-well plates 2 or 3 days prior to the experiments and treated with the antineoplastic platinum-derived drug Cisplatin, 5-FU, the protein synthesis inhibitor cycloheximide (CHX) or the topoisomerase inhibitor etoposide (VP-16) (Sigma, UK) or corresponding vehicle at the indicated concentration and time. […] 260 μL of each sample were transferred in counting tubes and Fluorine-18 radioactivity was immediately determined using a Packard Cobra II gamma counter (Perkin Elmer, UK). […] BCA Protein assay (Pierce, UK) was performed for all samples and datas are normalized and expressed as CCPMA or RLU (Relative Light Unit)/mg of protein. […]

For `O=C1C(=O)N(Cc2cn(CC[18F])nn2)c2ccc(S(=O)(=O)N3CCC[C@H]3COc3ccc(F)cc3F)cc21` [[^18F]11, (S)-1-((1-(2-Fluoroethyl)-1H-[1,2,3]-triazol-4-yl)methyl)-5-(2(2,4-difluorophenoxymethyl)-pyrrolidine-1-sulfonyl)isatin], the “increase in uptake in tumours of CPA-treated mice compared to the vehicle” value ([1]; 38C13 xenograft, CPA 100 mg/kg 24 h) was 2 fold, the “Biodistribution, Blood” value ([1]; CPA) was 1.00 ± 0.00 % ID Tumour/blood ratio and the “Biodistribution, Blood” value ([1]; Vehicle) was 1.00 ± 0.00 % ID Tumour/blood ratio. For the same molecule, the “Biodistribution, Bone” value ([1]; CPA) was 0.93 ± 0.07 % ID Tumour/blood ratio, the “Biodistribution, Bone” value ([1]; Vehicle) was 0.87 ± 0.10 % ID Tumour/blood ratio and the “Biodistribution, Brain” value ([1]; CPA) was 0.23 ± 0.03 % ID Tumour/blood ratio. For the same molecule, the “Biodistribution, Brain” value ([1]; Vehicle) was 0.24 ± 0.02 % ID Tumour/blood ratio, the “Biodistribution, Feces” value ([1]; CPA) was 8.46 ± 0.91 % ID Tumour/blood ratio and the “Biodistribution, Feces” value ([1]; Vehicle) was 13.28 ± 2.37 % ID Tumour/blood ratio. For the same molecule, the “Biodistribution, Heart” value ([1]; CPA) was 1.43 ± 0.16 % ID Tumour/blood ratio, the “Biodistribution, Heart” value ([1]; Vehicle) was 1.31 ± 0.10 % ID Tumour/blood ratio and the “Biodistribution, Kidney” value ([1]; CPA) was 7.23 ± 0.47 % ID Tumour/blood ratio. For the same molecule, the “Biodistribution, Kidney” value ([1]; Vehicle) was 7.21 ± 0.33 % ID Tumour/blood ratio, the “Biodistribution, L. Intestine” value ([1]; CPA) was 2.78 ± 0.64 % ID Tumour/blood ratio and the “Biodistribution, L. Intestine” value ([1]; Vehicle) was 6.07 ± 0.62 % ID Tumour/blood ratio. For the same molecule, the “Biodistribution, Liver” value ([1]; CPA) was 14.17 ± 1.55 % ID Tumour/blood ratio, the “Biodistribution, Liver” value ([1]; Vehicle) was 10.60 ± 0.75 % ID Tumour/blood ratio and the “Biodistribution, Lung” value ([1]; CPA) was 5.49 ± 0.66. For the same molecule, the “Biodistribution, Lung” value ([1]; Vehicle) was 4.27 ± 0.13, the “Biodistribution, Muscle” value ([1]; CPA) was 1.20 ± 0.07 % ID Tumour/blood ratio and the “Biodistribution, Muscle” value ([1]; Vehicle) was 1.22 ± 0.07 % ID Tumour/blood ratio. The “Biodistribution, Plasma” value ([1]; CPA 100 mg/kg 24 h, 38C13 xenograft) was 1.90 ± 0.09 % ID Tumour/blood ratio, the “Biodistribution, Plasma” value ([1]; Vehicle, 38C13 xenograft) was 1.98 ± 0.23 % ID Tumour/blood ratio and the “Biodistribution, S. Intestine” value ([1]; CPA) was 83.12 ± 70.19 % ID Tumour/blood ratio. For the same molecule, the “Biodistribution, S. Intestine” value ([1]; Vehicle) was 291.61 ± 28.68 % ID Tumour/blood ratio, the “Biodistribution, Spleen” value ([1]; CPA) was 1.81 ± 0.37 % ID Tumour/blood ratio and the “Biodistribution, Spleen” value ([1]; Vehicle) was 2.30 ± 0.38 % ID Tumour/blood ratio. For the same molecule, the “Biodistribution, Stomach” value ([1]; CPA) was 1.62 ± 0.19 % ID Tumour/blood ratio, the “Biodistribution, Stomach” value ([1]; Vehicle) was 1.95 ± 0.00 % ID Tumour/blood ratio and the “Biodistribution, Tumour” value ([1]; CPA) was 1.24 ± 0.11 % ID Tumour/blood ratio. The “Biodistribution, Tumour” value ([1]; Vehicle) was 0.83 ± 0.10 % ID Tumour/blood ratio, the “Biodistribution, Urine” value ([1]; CPA) was 43.64 ± 12.24 % ID Tumour/blood ratio and the “Biodistribution, Urine” value ([1]; Vehicle) was 116.71 ± 19.47 % ID Tumour/blood ratio. For the same molecule, the “increase in uptake in apoptotic cells” value ([2]; CDDP 100 μM 48 h vs vehicle, 1 h incubation) was roughly 1.5 fold and the “[^18F]11 uptake in drug-treated cells compared to control” value ([2]; CDDP or CHX 10 μg/mL 24 h, 60 min uptake) was “significantly increased”.
